# Experimental data as given in patent US8883782B2, “Spiro-tetracyclic ring compounds as beta-secretase modulators and methods of use” (Amgen Inc., priority 2010, dated 2014).
# Like-named read-outs stand apart in the source and are kept apart here.
# Assays:
# [1] = target: Beta Secretase enzyme (BACE) (Homo sapiens, UniProt P56817); assay: In vitro enzymatic BACE FRET (fluorescence resonance energy transfer) assay; format: biochemical; conditions: average IC50, enzyme assay; read-out: BACE 1 FRET assay
# Summary of the method: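 Acetate buffer (0.05 M, pH 4.2), 10% DMSO final, 100 uM nonionic detergent genapol. Substrate addition (50 nM FRET peptide) initiates; one-hour incubation; Tris raises pH to neutrality before fluorescence measurement.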
# [2] = system: Aβ40 in conditioned medium of cells stably expressing Amyloid Precursor Protein (APP); assay: In vitro BACE cell-based assay (Aβ40 in conditioned medium, sandwich ELISA); conditions: Homo sapiens, read-out: HEK cell assay
# Summary of the method: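 Step two: 10-point compound titration added, starting 100 μM or 10 μM, 0.1% DMSO. Step three: medium Aβ40 measured by ELISA, capture 3 h and detection 2 h at 4° C, TRF read.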
# [3] = system: Abeta 40 in cerebrospinal fluid (CSF) and brain; assay: In vivo inhibition of beta-secretase (Abeta 40 reduction in CSF and brain); conditions: rat, after 4 hrs; for inhibition in vivo at 3 mg/kg: Abeta 40, 3 mpk; for inhibition in vivo at 10 mg/kg: Abeta 40, 10 mg/kg (10 mpk)
# From the text: In Vivo Inhibition of Beta-Secretase
# Several animal models, including mouse, rat, dog, and monkey, may be used to screen for inhibition of beta-secretase activity in vivo following administration of a test compound sample. Animals used in this invention can be wild type, transgenic, or gene knockout animals. […] A separate group of animals receive 2% hydroxypropyl methylcellulose, 1% Tween80 alone, containing no test compound, and serve as a vehicle-control group. At the end of the test period, animals are sacrificed and brain tissues, plasma or cerebrospinal fluid are collected. […] Homogenates are centrifuged at 355,000 g, 4° C. for 30 minutes. CSF or brain supernatants are then analyzed for the presence of A-beta peptide by specific sandwich ELISA assays based on ECL (Electrochemiluminescence) technology. For example, rat Abeta40 is measured using biotinylated-4G8 (Signet) as a capture antibody and Fab40 (an in-house antibody specific to the C-terminal of Abeta40) as a detection antibody.
# Actual vehicles used: Oral: 2% HPMC, 1% Tween80, pH 2.2
# [4] = HEK293, average IC50, HEK cells
# [5] = CSF, read-out: CSF A-beta reduction % at 3 mpk
# [6] = brain, read-out: Brain A-beta reduction % at 3 mpk
# [7] = CSF, read-out: CSF A-beta reduction % at 10 mg/kg
# [8] = brain, read-out: Brain A-beta reduction % at 10 mg/kg
# Chain of Beta Secretase enzyme (BACE) (P56817 46-501, species assumed): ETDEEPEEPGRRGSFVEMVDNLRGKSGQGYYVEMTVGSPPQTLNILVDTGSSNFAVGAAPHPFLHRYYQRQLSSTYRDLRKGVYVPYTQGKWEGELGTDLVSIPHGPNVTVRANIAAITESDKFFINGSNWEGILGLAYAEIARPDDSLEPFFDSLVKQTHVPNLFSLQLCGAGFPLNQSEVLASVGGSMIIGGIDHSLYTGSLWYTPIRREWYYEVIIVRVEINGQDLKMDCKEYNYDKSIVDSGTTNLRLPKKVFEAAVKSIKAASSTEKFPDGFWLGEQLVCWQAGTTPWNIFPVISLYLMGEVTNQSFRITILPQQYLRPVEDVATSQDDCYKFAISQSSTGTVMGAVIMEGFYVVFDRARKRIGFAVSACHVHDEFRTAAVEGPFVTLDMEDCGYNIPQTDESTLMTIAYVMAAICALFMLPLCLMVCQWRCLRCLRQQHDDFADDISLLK
SMILES,IC50 [1] [nM],"IC50 [2, 4] [nM]","IC50 ([2]; HEK293, average IC50) [nM]","inhibition in vivo at 3 mg/kg [3, 5] [%]","inhibition in vivo at 3 mg/kg [3, 6] [%]","inhibition in vivo at 10 mg/kg [3, 7] [%]","inhibition in vivo at 10 mg/kg [3, 8] [%]"
"CC(C)(F)COc1cc(F)c2c(c1)[C@]1(COC(N)=N1)c1cc(-c3cncnc3)c(F)cc1O2 [Example 668, (4S)-3′,5′-difluoro-7′-(2-fluoro-2-methylpropoxy)-2′-(5-pyrimidinyl)spiro[1,3-oxazole-4,9′-xanthen]-2-amine]",0.8,11,–,55,46,–,–
"Cc1cnc(F)c(-c2ccc3c(c2)[C@@]2(COC(N)=N2)c2cc(N4CCOCC4)cc(F)c2O3)c1 [Example 132, (S)-4′-fluoro-7′-(2-fluoro-5-methylpyridin-3-yl)-2′-morpholino-5H-spiro[oxazole-4,9′-xanthen]-2-amine]",1.5,–,6,–,–,54,45
"COc1nc(-c2ccnc(F)c2)cc2c1Oc1ccc(-c3cccnc3)cc1[C@@]21COC(N)=N1 [Example 839, (S)-3-(2-fluoropyridin-4-yl)-1-methoxy-7-(pyridin-3-yl)-5′H-spiro[chromeno[2,3-c]pyridine-5,4′-oxazol]-2′-amine]",2.1,–,11,–,–,37,23
"NC1=N[C@@]2(CS1)c1cc(-c3cccnc3F)ccc1Oc1ncc(C3=CCOCC3)cc12 [Example 97, (S)-3-(3,6-dihydro-2H-pyran-4-yl)-7-(2-fluoropyridin-3-yl)-5′H-spiro[chromeno[2,3-b]pyridine-5,4′-thiazol]-2′-amine]",0.5,7.6,–,–,–,46,28
"CC#Cc1cncc(-c2ccc3c(c2)[C@@]2(COC(N)=N2)c2cc(-c4cccnc4)nc(F)c2O3)c1 [Example 759, (S)-1-fluoro-7-(5-(prop-1-ynyl)pyridin-3-yl)-3-(pyridin-3-yl)-5′H-spiro[chromeno[2,3-c]pyridine-5,4′-oxazol]-2′-amine]",0.4,–,3,43,43,–,–
"NC1=N[C@@]2(CO1)c1cc(-c3cccnc3)ccc1Oc1cnc(N3CCC(F)(F)C3)cc12 [Example 138, (S)-3-(3,3-difluoropyrrolidin-1-yl)-7-(pyridin-3-yl)-5′H-spiro[chromeno[2,3-c]pyridine-5,4′-oxazol]-2′-amine]",1.1,5.2,–,–,–,67,48
"NC1=N[C@@]2(CO1)c1cc(-c3cccnc3)ccc1Oc1cnc(N3CCC(F)(F)CC3)cc12 [Example 402, (5S)-3-(4,4-difluoro-1-piperidinyl)-7-(3-pyridinyl)spiro[chromeno[2,3-c]pyridine-5,4′-[1,3]oxazol]-2′-amine]",2.4,13.1,–,–,–,52,28
"Cc1ccnc(F)c1-c1ccc2c(c1)[C@@]1(COC(N)=N1)c1cc(C3=CCOCC3)ncc1O2 [Example 236, (S)-3-(3,6-dihydro-2H-pyran-4-yl)-7-(2-fluoro-4-methylpyridin-3-yl)-5′H-spiro[chromeno[2,3-c]pyridine-5,4′-oxazol]-2′-amine]",0.9,–,6,–,–,58,34
"CC(F)(F)COc1cc(F)c2c(c1)[C@]1(CSC(N)=N1)c1cc(-c3cccnc3F)ccc1O2 [Example 724, (4S)-2′-(2,2-difluoropropoxy)-4′-fluoro-7′-(2-fluoro-3-pyridinyl)spiro[1,3-thiazole-4,9′-xanthen]-2-amine]",1,–,22,–,–,42,27

# More lines, main results first:
IC50 [1] [nM],"IC50 [2, 4] [nM]","IC50 ([2]; HEK293, average IC50) [nM]",SMILES,"inhibition in vivo at 3 mg/kg [3, 5] [%]","inhibition in vivo at 3 mg/kg [3, 6] [%]","inhibition in vivo at 10 mg/kg [3, 7] [%]","inhibition in vivo at 10 mg/kg [3, 8] [%]"
0.4,9,–,"NC1=N[C@@]2(CO1)c1cc(-c3cncc(F)c3)ccc1Oc1c2cc(N2CCC(F)(F)C2)nc1F [Example 922, (S)-3-(3,3-difluoropyrrolidin-1-yl)-1-fluoro-7-(5-fluoropyridin-3-yl)-5′-H-spiro[chromeno[2,3-c]pyridine-5,4′-oxazol]-2′-amine]",69,57,–,–
0.4,–,12,"NC1=N[C@@]2(CS1)c1cc(-c3cccnc3F)ccc1Oc1c(F)cc(-c3ncccn3)cc12 [Example 1079, (S)-4′-fluoro-7′-(2-fluoropyridin-3-yl)-2′-(pyrimidin-2-yl)-5H-spiro[thiazole-4,9′-xanthen]-2-amine]",–,–,67,54
0.7,10,–,"CC(C)(C#N)COc1cc(F)c2c(c1)[C@]1(COC(N)=N1)c1cc(-c3cccnc3)c(F)cc1O2 [Example 860, (S)-3-(2-amino-3′,5′-difluoro-2′-(pyridin-3-yl)-5H-spiro[oxazole-4,9′-xanthene]-7′-yloxy)-2,2-dimethylpropanenitrile]",–,–,0,2
2.1,–,49,"Cc1cc(-c2cc3c(c(F)n2)Oc2ccc(-c4cccnc4F)cc2[C@@]32CSC(N)=N2)ccn1 [Example 1037, (S)-1-fluoro-7-(2-fluoropyridin-3-yl)-3-(2-methylpyridin-4-yl)-5′H-spiro[chromeno[2,3-c]pyridine-5,4′-thiazol]-2′-amine]",–,–,67,58
0.3,–,4,"NC1=N[C@@]2(CS1)c1cc(-c3cccnc3F)ccc1Oc1c2cc(C2=CCOCC2)nc1F [Example 1001, (S)-3-(3,6-dihydro-2H-pyran-4-yl)-1-fluoro-7-(2-fluoropyridin-3-yl)-5′H-spiro[chromeno[2,3-c]pyridine-5,4′-thiazol]-2′-amine]",73,62,–,–
0.4,1,–,"CC#Cc1cncc(-c2ccc3c(c2)[C@@]2(COC(N)=N2)c2cc(C4=CCOCC4)cnc2O3)c1 [Example 942, (S)-3-(3,6-dihydro-2H-pyran-4-yl)-7-(5-(prop-1-ynyl)pyridin-3-yl)-5′H-spiro[chromeno[2,3-b]pyridine-5,4′-oxazol]-2′-amine]",57,42,–,–
1.2,–,18,"NC1=N[C@@]2(CS1)c1cc(-c3cccnc3F)ccc1Oc1c(F)cc(-c3cccnc3)cc12 [Example 1083, (S)-4′-fluoro-7′-(2-fluoropyridin-3-yl)-2′-(pyridin-3-yl)-5H-spiro[thiazole-4,9′-xanthen]-2-amine]",–,–,66,53
